Measured values published in ChEMBL document CHEMBL5620374, “Synthesis and bioevaluation of novel stilbene-based derivatives as tubulin/HDAC dual-target inhibitors with potent antitumor activities in vitro and in vivo” (Eur J Med Chem, 2023).

What was measured:
H22 = experiment: Antitumor activity against mouse H22 cells allografted in ICR mouse assessed as tumor growth inhibition at 20 mg/kg, iv qd for 17 days consecutively relative to control; format: functional; conditions: time 17 day, read-out: TGI
[1] = target: T1, Protein deacetylase HDAC6 (Homo sapiens, UniProt Q9UBN7); experiment: Inhibition of HDAC6 derived from human HeLa cell extract using Ac-Leu-Gly-Lys (Ac)-AMC as substrate by fluorescence based assay; format: cell-free
T1 sequence (Q9UBN7 whole entry): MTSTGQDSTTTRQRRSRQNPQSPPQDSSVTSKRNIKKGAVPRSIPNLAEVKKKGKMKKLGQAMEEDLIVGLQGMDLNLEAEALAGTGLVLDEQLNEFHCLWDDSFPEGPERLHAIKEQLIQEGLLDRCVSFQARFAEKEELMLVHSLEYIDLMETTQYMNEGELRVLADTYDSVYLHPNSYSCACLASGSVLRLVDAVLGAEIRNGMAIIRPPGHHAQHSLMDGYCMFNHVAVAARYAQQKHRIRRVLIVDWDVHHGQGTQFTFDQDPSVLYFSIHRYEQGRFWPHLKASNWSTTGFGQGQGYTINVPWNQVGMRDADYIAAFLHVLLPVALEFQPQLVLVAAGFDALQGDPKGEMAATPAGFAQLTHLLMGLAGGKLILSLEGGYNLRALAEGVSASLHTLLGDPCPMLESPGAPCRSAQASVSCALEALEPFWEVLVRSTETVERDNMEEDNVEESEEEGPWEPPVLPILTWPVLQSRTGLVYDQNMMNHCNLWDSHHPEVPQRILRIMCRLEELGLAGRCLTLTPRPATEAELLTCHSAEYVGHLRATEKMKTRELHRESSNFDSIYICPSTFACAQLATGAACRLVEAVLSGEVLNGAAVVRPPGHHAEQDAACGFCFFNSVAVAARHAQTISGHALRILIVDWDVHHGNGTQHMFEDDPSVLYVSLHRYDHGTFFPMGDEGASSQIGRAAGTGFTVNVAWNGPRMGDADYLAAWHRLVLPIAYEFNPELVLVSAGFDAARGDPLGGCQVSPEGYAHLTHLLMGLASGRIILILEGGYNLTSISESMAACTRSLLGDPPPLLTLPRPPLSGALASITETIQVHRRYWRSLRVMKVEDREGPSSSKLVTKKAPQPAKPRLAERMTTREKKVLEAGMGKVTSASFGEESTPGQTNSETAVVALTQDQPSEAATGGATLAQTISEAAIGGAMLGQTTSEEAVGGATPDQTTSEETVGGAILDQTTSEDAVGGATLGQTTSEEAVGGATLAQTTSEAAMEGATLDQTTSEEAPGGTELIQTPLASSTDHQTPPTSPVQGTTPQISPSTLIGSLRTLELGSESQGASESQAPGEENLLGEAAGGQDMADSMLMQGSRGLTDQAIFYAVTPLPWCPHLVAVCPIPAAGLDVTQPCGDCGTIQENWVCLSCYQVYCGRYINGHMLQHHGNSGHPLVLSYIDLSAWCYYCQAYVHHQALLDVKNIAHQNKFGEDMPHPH

[2] = Antiproliferative activity against human HFL1 cells incubated for 72 hrs by MTT assay; format: toxicity, cell-based
MDA-MB-231 = experiment: cells; conditions: Homo sapiens, MDA-MB-231, 72 h
Description: Antiproliferative activity against human MDA-MB-231 cells incubated for 72 hrs by MTT assay

K562 = experiment: Antiproliferative activity against human K562 cells incubated for 72 hrs by MTT assay; format: functional, cell-based; conditions: K562, 72 h
Histone deacetylase 2 = Histone deacetylase 2 (Homo sapiens, UniProt Q92769); experiment: Inhibition of HDAC2 derived from human HeLa cell extract using Ac-Leu-Gly-Lys (Ac)-AMC as substrate by fluorescence based assay
Histone deacetylase 2, sequence (Q92769 whole entry): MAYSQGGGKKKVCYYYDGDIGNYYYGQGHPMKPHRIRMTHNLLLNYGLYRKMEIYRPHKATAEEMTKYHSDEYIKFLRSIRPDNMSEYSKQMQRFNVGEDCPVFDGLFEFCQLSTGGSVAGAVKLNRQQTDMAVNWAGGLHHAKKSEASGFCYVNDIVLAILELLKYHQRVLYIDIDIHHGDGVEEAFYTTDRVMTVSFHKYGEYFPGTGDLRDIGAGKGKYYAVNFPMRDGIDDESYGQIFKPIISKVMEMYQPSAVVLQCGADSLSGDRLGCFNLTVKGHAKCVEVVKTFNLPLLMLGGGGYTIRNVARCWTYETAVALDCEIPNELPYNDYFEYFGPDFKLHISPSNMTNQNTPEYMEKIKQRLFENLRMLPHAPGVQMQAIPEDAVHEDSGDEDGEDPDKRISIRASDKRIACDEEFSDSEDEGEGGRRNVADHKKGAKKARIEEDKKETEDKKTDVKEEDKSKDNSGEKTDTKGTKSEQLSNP

A2780 = experiment: cells; conditions: Homo sapiens, A2780, 72 h
Description: Antiproliferative activity against human A2780 cells incubated for 72 hrs by MTT assay

Histone deacetylase 7 = target: T2, Histone deacetylase 7 (Homo sapiens, UniProt Q8WUI4); experiment: Inhibition of HDAC7 derived from human HeLa cell extract using Ac-Leu-Gly-Lys (Ac)-AMC as substrate by fluorescence based assay; format: cell-free
T2 sequence (Q8WUI4 whole entry): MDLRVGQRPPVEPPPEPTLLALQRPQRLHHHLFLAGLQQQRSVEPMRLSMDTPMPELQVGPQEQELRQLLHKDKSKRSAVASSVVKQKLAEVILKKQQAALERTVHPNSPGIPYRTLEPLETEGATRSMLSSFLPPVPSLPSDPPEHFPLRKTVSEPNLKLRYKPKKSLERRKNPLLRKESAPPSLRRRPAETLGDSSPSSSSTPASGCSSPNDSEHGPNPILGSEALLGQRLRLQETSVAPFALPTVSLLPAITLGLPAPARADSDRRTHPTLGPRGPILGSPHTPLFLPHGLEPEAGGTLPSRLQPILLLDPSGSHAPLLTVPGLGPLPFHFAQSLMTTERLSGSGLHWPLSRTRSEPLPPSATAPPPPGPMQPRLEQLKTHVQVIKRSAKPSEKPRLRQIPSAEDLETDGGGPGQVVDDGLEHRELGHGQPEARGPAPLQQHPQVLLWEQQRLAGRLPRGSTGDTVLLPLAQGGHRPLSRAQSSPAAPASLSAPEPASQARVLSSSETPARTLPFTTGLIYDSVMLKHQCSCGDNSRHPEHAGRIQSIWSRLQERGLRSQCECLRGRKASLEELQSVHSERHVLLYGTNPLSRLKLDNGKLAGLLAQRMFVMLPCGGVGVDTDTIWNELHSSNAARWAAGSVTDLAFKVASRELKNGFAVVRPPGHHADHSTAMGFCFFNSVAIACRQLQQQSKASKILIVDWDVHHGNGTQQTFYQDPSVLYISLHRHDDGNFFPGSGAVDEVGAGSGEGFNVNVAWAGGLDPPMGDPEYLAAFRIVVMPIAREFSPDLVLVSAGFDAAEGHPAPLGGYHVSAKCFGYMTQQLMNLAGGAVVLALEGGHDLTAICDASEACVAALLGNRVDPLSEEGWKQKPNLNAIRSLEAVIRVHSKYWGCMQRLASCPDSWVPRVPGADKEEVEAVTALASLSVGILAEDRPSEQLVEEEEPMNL

Histone deacetylase 3 = Histone deacetylase 3 (Homo sapiens, UniProt O15379); experiment: Inhibition of HDAC3 derived from human HeLa cell extract using Ac-Leu-Gly-Lys (Ac)-AMC as substrate by fluorescence based assay; format: cell-free
Histone deacetylase 3, sequence (O15379 whole entry): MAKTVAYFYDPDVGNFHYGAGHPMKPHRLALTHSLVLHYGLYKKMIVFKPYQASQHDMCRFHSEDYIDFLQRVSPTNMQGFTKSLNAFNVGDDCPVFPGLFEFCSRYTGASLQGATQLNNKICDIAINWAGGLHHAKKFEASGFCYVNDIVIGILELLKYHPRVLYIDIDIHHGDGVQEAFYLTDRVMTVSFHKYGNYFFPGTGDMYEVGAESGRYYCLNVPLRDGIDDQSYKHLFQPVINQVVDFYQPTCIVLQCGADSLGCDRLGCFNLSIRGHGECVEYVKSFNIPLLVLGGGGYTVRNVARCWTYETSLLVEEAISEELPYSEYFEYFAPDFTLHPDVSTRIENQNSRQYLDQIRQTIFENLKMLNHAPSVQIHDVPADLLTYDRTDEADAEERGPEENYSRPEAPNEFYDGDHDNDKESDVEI

Histone deacetylase 1 = Histone deacetylase 1 (Homo sapiens, UniProt Q13547); experiment: Inhibition of HDAC1 derived from human HeLa cell extract using Ac-Leu-Gly-Lys (Ac)-AMC as substrate by fluorescence based assay; format: cell-free
Histone deacetylase 1, sequence (Q13547 whole entry): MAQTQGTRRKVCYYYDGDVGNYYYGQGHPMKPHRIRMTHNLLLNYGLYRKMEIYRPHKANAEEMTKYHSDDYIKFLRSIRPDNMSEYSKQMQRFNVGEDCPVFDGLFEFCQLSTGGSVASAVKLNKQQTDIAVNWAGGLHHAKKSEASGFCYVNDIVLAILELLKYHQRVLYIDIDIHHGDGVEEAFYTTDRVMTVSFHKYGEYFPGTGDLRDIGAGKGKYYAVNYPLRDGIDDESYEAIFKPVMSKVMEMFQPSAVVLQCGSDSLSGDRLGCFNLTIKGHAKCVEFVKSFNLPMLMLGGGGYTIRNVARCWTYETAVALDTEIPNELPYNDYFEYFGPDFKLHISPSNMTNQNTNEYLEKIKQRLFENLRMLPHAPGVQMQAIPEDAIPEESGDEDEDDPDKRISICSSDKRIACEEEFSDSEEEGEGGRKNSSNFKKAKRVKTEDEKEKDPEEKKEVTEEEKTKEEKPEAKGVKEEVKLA

MCF7 = experiment: cells; conditions: Homo sapiens, MCF7, 72 h
Description: Antiproliferative activity against human MCF7 cells incubated for 72 hrs by MTT assay

A549 = experiment: cells; conditions: Homo sapiens, A549, 72 h
Description: Antiproliferative activity against human A549 cells incubated for 72 hrs by MTT assay

B16-F10 = experiment: Antiproliferative activity against mouse B16-F10 cells incubated for 72 hrs by MTT assay; format: functional, cell-based; conditions: B16-F10, 72 h

IC50 [1]	IC50 (MDA-MB-231)	IC50 (K562)	IC50 (Histone deacetylase 2)	IC50 (A2780)	IC50 (Histone deacetylase 7)	IC50 (Histone deacetylase 3)	IC50 (Histone deacetylase 1)	IC50 (MCF7)	IC50 (A549)	IC50 (B16-F10)	SMILES	inhibition in vivo at 20 mg/kg (H22)	IC50 at 72 h [2]
											C=C(c1ccc(OC)c(O)c1)c1cc(C)nc2ccccc12	64.1%	
4.68 µM	0.028 µM	0.007 µM	2.32 µM	0.014 µM	> 10 µM	8.91 µM	1.47 µM	0.022 µM	0.015 µM	0.03 µM	C=C(c1ccc(OC)c(OC(C)C(=O)NO)c1)c1cc(C)nc2ccccc12 (stereo not drawn)		0.095 µM
